Measurements: patent US20180215783A1, “BIOORTHOGONAL REACTION OF AN AMINE N-OXIDE AND A BORON AGENT” (The Regents of the University of California, priority 2015, published 2018)

Legend:
[1] = Reaction kinetics of amine N-oxide with p-nitrophenylboronic acid in water, UV/vis absorption of p-nitrophenol, pseudo-first order; conditions: reaction with p-nitrophenylboronic acid (2) in water, room temperature
Method: A first experiment was performed to determine the kinetic parameters for the reaction between TMAO (1) and p-nitrophenylboronic acid (2) in water (see FIG. 1, panel A). Reaction progress was monitored by UV/vis absorption of product p-nitrophenol (3) under pseudo-first order conditions. A second-order rate constant of 2.83±0.05×10^−6 M^−1s^−1 was determined for the reaction at room temperature, several orders of magnitude below current standards of bioorthogonal reactivity (see e.g., Lang et al., ACS Chem. Biol. 2014, 9, 16; McKay et al. Chem. Biol. 2014, 21, 1075; Patterson et al., ACS Chem. Biol. 2014, 9, 592; (e) Sletten et al., Angew. Chem. Int. Ed. 2009, 48, 6974) but nonetheless a starting point for kinetic optimization.

[2] = system: HEK293T cells transiently transfected with a cytosolic GFP-HaloTag fusion construct; assay: Intracellular uncaging and membrane permeability in live cells, confocal microscopy; format: cell-based, human
Method: Green (left column), red (middle column), and blue (not shown) channels represent GFP, TAMRA, and Hoechst 33342 fluorescence, respectively. The merged image (right column) is a composite of all three channels with a phase contrast image.
HEK293T cells were transiently transfected with a cytosolic GFP-HaloTag fusion construct, then treated with 100 µM compound 10.

[3] = Reaction kinetics of N-oxides with B2pin2, stopped-flow fluorometry, pseudo-first order; conditions: reaction with B2pin2 in PBS (pH 7.4), pseudo-first order conditions
Method: Data represent the mean of experiments performed in triplicate. […] Data represent the mean of experiments performed in triplicate. Error bars represent a standard deviation. […] Data represent the mean of experiments performed in triplicate. […] Data represent the mean of experiments done in triplicate. Error bars represent a standard deviation.
The kinetics of the reaction were first evaluated using N-oxide 6 (FIG. 2, panel A).
The reaction was then performed on a biomolecule. […] It should be noted, however, that pseudo-first-order kinetics performed under saturating conditions can obscure important information regarding the deactivation of the diboron reagent through sequestration or off-target reactivity. To address this issue, a 64-kDa GFP-HaloTag fusion protein was expressed, ligated to compound 10 to produce GFP-HaloTag-10.

With `C[N+](C)(C)[O-]` [TMAO, Trimethylamine N-oxide] as the molecule, how does the second-order rate constant [1] read?
The second-order rate constant was 2.83±0.05×10^−6 M^−1s^−1.

What does the source list for “5(6)-HaloTag Tetramethylrhodamine Bis-N-Oxide [compound 10]”?
TAMRA signal upon addition of B2pin2 ([2]; cells loaded with compound, washed, B2pin2 0 μM, 10 μM, 100 μM or 1 mM in media for 45 min): increased; membrane permeability ([2]; live HEK293T cells): cell permeable

With HaloTag Rhodol N-Oxide [compound 8] as the molecule, how does the second-order rate constant [3] read?
Its second-order rate constant is 1.71±0.043×10^3 M^−1s^−1.
